The text below walks through data of patent US20070020203A1, “Skin care composition” (priority 2005, published 2007).

This assay deals with Mushroom Tyrosinase (Agaricus bisporus, UniProt C7FF04). Nature of the assay: Comparative tyrosinase inhibitory activity (dopachrome optical density at 475 nm). Format: biochemical.
Mushroom Tyrosinase, sequence (C7FF04 1-392): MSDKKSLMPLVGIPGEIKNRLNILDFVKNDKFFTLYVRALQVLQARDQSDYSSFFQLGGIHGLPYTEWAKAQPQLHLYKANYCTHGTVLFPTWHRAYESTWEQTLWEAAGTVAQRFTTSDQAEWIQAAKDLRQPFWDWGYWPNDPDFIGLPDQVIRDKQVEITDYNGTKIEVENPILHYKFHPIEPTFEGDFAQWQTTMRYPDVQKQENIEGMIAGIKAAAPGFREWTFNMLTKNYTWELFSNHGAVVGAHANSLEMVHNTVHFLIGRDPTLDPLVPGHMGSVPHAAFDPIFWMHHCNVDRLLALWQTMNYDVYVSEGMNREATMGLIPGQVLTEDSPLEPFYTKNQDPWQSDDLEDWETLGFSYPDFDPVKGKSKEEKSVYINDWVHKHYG
Mushroom Tyrosinase, sequence (G1K3P4 entry or part of it, further chain): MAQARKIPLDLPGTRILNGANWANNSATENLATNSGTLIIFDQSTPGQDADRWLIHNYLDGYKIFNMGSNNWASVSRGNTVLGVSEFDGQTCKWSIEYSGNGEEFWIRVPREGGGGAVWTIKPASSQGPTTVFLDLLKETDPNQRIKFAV

Description: All measurements were performed at room temperature (24 C) with a Beckman Coulter DU-640 spectrophotometer at a scan speed of 1200 nm/min with a spectral range from 300 to 700 nm.
Buffer solution • KH2PO4 99.8% & KOH 85+% (pH 7.4, 100 mM) • Mol. Wt. 136.09, VWR and Sigma-Aldrich • KH2PO4 (1362 mg) dissolved in distilled water (100 ml) and pH adjusted to 7.4 with a 2 M KOH solution • 2. Mushroom Tyrosinase solution (240 units per 1 ml) • 2440 units/mg, Sigma-Aldrich • Tyrosinase (2.5 mg) dissolved in 25 ml of distilled water • 3. L-DOPA solution (6.3 mM) • Mol. Wt. 197, Sigma-Aldrich • 33.1 mg are dissolved in distilled water (25 ml) • 4. L-Tyrosine solution (1.3 mM) • Mol. Wt. 181.2, Sigma-Aldrich • 23.5 mg are dissolved in distilled water (100 ml) • 5. Hydrogen peroxide solution (5 mM) • Sigma-Aldrich • 1/100 of 0.9/25 vol. dilution of a 50% wt. solution b) Skin Lightening Ingredients • 5. Emblica™ antioxidant (5 mM)—Lot # CA0106007 • Average Mol. Wt. 729, EMD Chemicals / Merck KGaA • Emblica (18.2 mg) dissolved in distilled water (5 ml) • 6. […]
The stock solutions were added in an orderly manner with quantities according to Table 1 as to obtain a final total volume of 3.0 ml for each preparation. […] After 15 min of reaction time, the spectra were recorded between 300 and 700 nm and the optical density at 475 nm (Dopachrome) measured.

`Oc1ccc(O)cc1` [Hydroquinone]: the “inhibitory activity against tyrosinase (in words)” value reads like this: (DOPA as substrate) “less effective”; (tyrosine used as a substrate) “excellent inhibitory activity”.
